For orientation: Kd means the concentration at which binding is half-saturated. For orientation: IC50 means the concentration that gives 50% inhibition. A higher IC50 goes with lower potency.

Structures are written as SMILES.

Assay [1] addresses E3 ubiquitin-protein ligase Mdm2 (Homo sapiens, UniProt Q00987). Briefly: Binding affinity to recombinant human MDM2 (1 to 118 residues) expressed in Escherichia coli BL21 (DE3) assessed as reduction in tryptophan fluorescence by microscale thermophoresis method. Background: Microscale thermophoresis detects binding through changes in fluorescence in a small temperature gradient.

Assay [2] in a line: Antiproliferative activity against human LAN5 cells after 72 hrs by XTT assay. Type of assay: functional, cell-based. The note with it: LA-N-5, 72 h.
The next assay relates to IMR-5. The assay is described as follows: Antiproliferative activity against human IMR5 cells after 72 hrs by XTT assay. The class given is functional, cell-based. The note with it: IMR-5, 72 h. Background: Tetrazolium dyes change colour on reduction, which living cells bring about.
Another assay relates to IMR-32. The assay is described as follows: Antiproliferative activity against human IMR32 cells after 72 hrs by XTT assay. To be noted: IMR-32, 72 h. The class given is functional, cell-based.
Another assay deals with SH-SY5Y. The assay is described as follows: Antiproliferative activity against human SH-SY5Y cells after 72 hrs by XTT assay. The class given is functional, cell-based.
The test system of another assay is SK-N-SH. Briefly: Antiproliferative activity against human SK-N-SH cells after 72 hrs by XTT assay. Type of assay: functional, cell-based.
The next assay concerns U2OS. The assay is described as follows: Antiproliferative activity against human U2OS cells after 72 hrs by MTT assay. Type of assay: functional, cell-based.
In another assay the test system is PC-3. Briefly: Growth inhibition of human PC3 cells harboring p53 deletion mutant after 4 days by WST8 assay. The class given is functional, cell-based. To be noted: PC-3, 96 h.

Chain of E3 ubiquitin-protein ligase Mdm2 (Q00987 whole entry, the tested form may be a part): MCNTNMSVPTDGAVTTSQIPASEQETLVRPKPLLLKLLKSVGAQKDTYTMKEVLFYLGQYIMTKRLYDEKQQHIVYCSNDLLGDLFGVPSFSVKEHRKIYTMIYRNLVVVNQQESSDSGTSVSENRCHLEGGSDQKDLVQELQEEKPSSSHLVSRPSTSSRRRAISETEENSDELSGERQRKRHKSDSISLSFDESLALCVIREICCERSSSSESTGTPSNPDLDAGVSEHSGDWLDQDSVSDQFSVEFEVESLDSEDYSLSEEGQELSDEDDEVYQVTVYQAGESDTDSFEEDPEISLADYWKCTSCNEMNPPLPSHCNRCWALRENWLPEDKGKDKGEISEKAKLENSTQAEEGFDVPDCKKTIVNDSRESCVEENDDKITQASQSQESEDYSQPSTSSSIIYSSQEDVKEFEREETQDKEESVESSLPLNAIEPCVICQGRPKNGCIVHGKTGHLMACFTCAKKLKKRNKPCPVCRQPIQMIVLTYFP

Consider `CN1C(=O)C(Cc2ccc(Cl)cc2)=C(c2c[nH]c3cc(Cl)ccc23)[C@]1(O)Cc1ccc(Cl)cc1`, for which the Kd in assay [1] was found to be 500 nM.
Regarding `CC1(C)CCC2(CC1)N[C@H](C(=O)N[C@H]1CC[C@H](C(N)=O)OC1)[C@@H](c1ccnc(Cl)c1F)[C@@]21C(=O)Nc2cc(Cl)ccc21`, the IC50 is 44.1 nM in assay [2]; 25.7 nM with IMR-5; 52.6 nM in the assay with IMR-32; 17.7 nM in the assay on SH-SY5Y; 21.9 nM in the assay with SK-N-SH.
In turn, `Clc1ccc(C2N=C(c3ccccc3)c3cc(Cl)ccc3-n3cnnc32)cc1` (stereo not drawn) returned an IC50 with U2OS of 4.17 µM. In other words, the single-digit micromolar range.
On to `CN(C)C(=O)[C@@H]1N[C@H](CC(C)(C)C)[C@]2(C(=O)Nc3cc(Cl)ccc32)[C@H]1c1cccc(Cl)c1`, for which, in the assay with PC-3, the IC50 came out at 22.5 µM.

Source of the values: ChEMBL document CHEMBL4265913, “Role of p53 circuitry in tumorigenesis: A brief review” (Eur J Med Chem, 2018).
